For 25 molecules, IC50 results are on record in patent publication US10913738B2 (BRISTOL-MYERS SQUIBB COMPANY, priority 2017, dated 2021).

Assay [1] deals with T1, His-GST-TVMV-hRIPK1(1-324) (Homo sapiens, UniProt Q13546).
T1 construct: The coding region of human RIPK1(1-324) flanked by NdeI site at 5′ end; made in house; host or cells: Spodoptera frugiperda (Sf9) insect cells, baculovirus
T1 sequence (Q13546 1-324): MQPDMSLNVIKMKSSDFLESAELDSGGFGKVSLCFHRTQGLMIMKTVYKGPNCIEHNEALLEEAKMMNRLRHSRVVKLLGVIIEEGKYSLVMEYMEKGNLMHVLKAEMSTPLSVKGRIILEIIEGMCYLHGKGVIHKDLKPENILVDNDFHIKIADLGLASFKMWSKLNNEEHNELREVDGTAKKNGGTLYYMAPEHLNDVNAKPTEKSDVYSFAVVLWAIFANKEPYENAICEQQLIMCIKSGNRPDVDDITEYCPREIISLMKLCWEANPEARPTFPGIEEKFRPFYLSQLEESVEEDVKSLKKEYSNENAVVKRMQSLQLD
As to the kind of experiment: RIPK1 HTRF Binding Assay. Background: TR-FRET usually uses a lanthanide donor and a delayed reading to cut background.

Assay [2] has as its system MLKL phosphorylation in HT29-L23 human colorectal adenocarcinoma cells. Kind of assay: MLKL Phosphorylation High-Content Assay. It is filed as cell-based. Particulars: Homo sapiens. The procedure, abridged: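 IC50 and Ymax obtained by 4-parameter logistic fitting of MLKL phosphorylation, measured as mean circ-ring average intensity ratio from high-content images. Staining used an anti-phospho-S358 MLKL antibody overnight at 4° C., following six-hour cell incubation at 37° C.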

The mark [3] stands for this setting: x marks IC50 class 20-200 nM, read-out: RIPK1 HTRF binding 20-200 nM.
The mark [4] stands for this setting: x marks IC50 class >200 nM, read-out: pMLKL cell activity >200 nM.
Where [5] appears, read: x marks IC50 class <20 nM, read-out: RIPK1 HTRF binding <20 nM.
The mark [6] stands for this setting: x marks IC50 class <20 nM, read-out: pMLKL cell activity <20 nM.
Where [7] appears, read: x marks IC50 class 20-200 nM, read-out: pMLKL cell activity 20-200 nM.

Where two headings read alike, the source gives them in different places.

Turning to `Cc1ccc(-c2ccn3nc(N)nc3c2)nc1C(=O)NCc1cc(OC(F)(F)F)ccc1F` [Example 405, 6-(2-amino-[1,2,4]triazolo[1,5-a]pyridin-7-yl)-N-(2-fluoro-5-(trifluoromethoxy)benzyl)-3-methylpicolinamide], the values for the IC50 in assay [1] (setting [3]) and in assay [2] (setting [4]) were 20 to 200 nM and more than 200 nM, respectively.

With `COc1ncc(-c2ccn3nc(N)nc3c2)cc1C(=O)NCc1ccccc1Oc1ccc(F)cc1` [Example 110, 5-{2-amino-[1,2,4]triazolo[1,5-a]pyridin-7-yl}-N-{[2-(4-fluorophenoxy)phenyl]methyl}-2-methoxypyridine-3-carboxamide], the IC50 in assay [1] (setting [5]) and in assay [2] (setting [6]) was less than 20 nM throughout.

For `COc1ncc(-c2ccn3nc(N)nc3c2)cc1C(=O)NCc1ccccc1OCC(F)(F)F` [Example 343, 5-(2-amino-[1,2,4]triazolo[1,5-a]pyridin-7-yl)-2-methoxy-N-(2-(2,2,2-trifluoroethoxy)benzyl)nicotinamide], the values for the IC50 in assay [1] (setting [5]) and in assay [2] (setting [7]) were less than 20 nM and 20 to 200 nM, respectively.

Take `Cc1ncc(C(=O)NCc2cccnc2OCC2CCC2)cc1-c1ccn2nc(N)nc2c1` [Example 261, 5-{2-amino-[1,2,4]triazolo[1,5-a]pyridin-7-yl}-N-{[2-(cyclobutylmethoxy)pyridin-3-yl]methyl}-6-methylpyridine-3-carboxamide]: the values for the IC50 in assay [1] (setting [3]) and in assay [2] (setting [4]) were 20 to 200 nM and more than 200 nM, respectively.

Turning to `COc1nc(C)c(-c2ccn3nc(N)nc3c2)cc1C(=O)NCc1cccnc1OC1CCCC1` [Example 34, 5-{2-Amino-[1,2,4]triazolo[1,5-a]pyridin-7-yl}-N-{[2-(cyclopentyloxy)pyridin-3-yl]methyl}-2-methoxy-6-methylpyridine-3-carboxamide], the IC50 in assay [1] (setting [5]) and in assay [2] (setting [6]) was less than 20 nM each time.

Take `COc1ncc(C(=O)NCc2c(F)cccc2OCC2CC2)cc1-c1ccn2nc(N)nc2c1` [Example 26, 5-{2-Amino-[1,2,4]triazolo[1,5-a]pyridin-7-yl}-N-{[2-(cyclopropylmethoxy)-6-fluorophenyl]methyl}-6-methoxypyridine-3-carboxamide]: the IC50 was less than 20 nM in assay [1] (setting [5]) and 20 to 200 nM in assay [2] (setting [7]).

With `COc1ncc(-c2ccn3nc(N)nc3c2)cc1C(=O)N[C@H]1C[C@@H]1c1ccccc1` [Example 100, 5-{2-amino-[1,2,4]triazolo[1,5-a]pyridin-7-yl}-2-methoxy-N-[(1S,2R)-2-phenylcyclopropyl]pyridine-3-carboxamide], the IC50 is 20 to 200 nM in assay [1] (setting [3]) and more than 200 nM in assay [2] (setting [4]).

As to `CCOc1ncc(-c2ccn3nc(N)nc3c2)cc1C(=O)NCc1c(F)cc(F)cc1OCC1CCCC1` [Example 13, 5-{2-Amino-[1,2,4]triazolo[1,5-a]pyridin-7-yl}-N-{[2-(cyclopentylmethoxy)-4,6-difluorophenyl]methyl}-2-ethoxypyridine-3-carboxamide], the results for the IC50 in assay [1] (setting [3]) and in assay [2] (setting [4]) were 20 to 200 nM and more than 200 nM, respectively.

For the molecule `Nc1nc2cc(-c3cncc(C(=O)NCc4c(F)cccc4OC4CCCC4)c3)ccn2n1` [Example 40, 5-{2-Amino-[1,2,4]triazolo[1,5-a]pyridin-7-yl}-N-{[2-(cyclopentyloxy)-6-fluorophenyl]methyl}pyridine-3-carboxamide], the IC50 was less than 20 nM in assay [1] (setting [5]) and 20 to 200 nM in assay [2] (setting [7]).

With `Nc1nc2cc(-c3cnc(N)c(C(=O)NCc4ccccc4OCC4CCC4)c3)ccn2n1` [Example 49, 2-Amino-5-{2-amino-[1,2,4]triazolo[1,5-a]pyridin-7-yl}-N-{[2-(cyclobutylmethoxy)phenyl]methyl}pyridine-3-carboxamide], the IC50 in assay [1] (setting [5]) was less than 20 nM; in assay [2] (setting [7]), 20 to 200 nM.

Consider `Cc1ccc(-c2ccn3nc(N)nc3c2)nc1C(=O)NCCC(C)c1ccccc1` (centres unmarked) [Example 404, 6-(2-amino-[1,2,4]triazolo[1,5-a]pyridin-7-yl)-3-methyl-N-(3-phenylbutyl)picolinamide], for which the IC50 in assay [1] (setting [3]) and in assay [2] (setting [7]) was 20 to 200 nM throughout.

In the case of `Cc1ncc(-c2ccn3nc(N)nc3c2)cc1C(=O)NCc1c(F)cccc1OCC1CCCC1` [Example 15, 5-{2-Amino-[1,2,4]triazolo[1,5-a]pyridin-7-yl}-N-{[2-(cyclopentylmethoxy)-6-fluorophenyl]methyl}-2-methylpyridine-3-carboxamide], the IC50 in assay [1] (setting [5]) and in assay [2] (setting [6]) was less than 20 nM each time.

With `COc1nc(C)c(-c2ccn3nc(N)nc3c2)cc1C(=O)NCc1cccc(OCC(F)(F)F)c1` [Example 334, 5-(2-amino-[1,2,4]triazolo[1,5-a]pyridin-7-yl)-2-methoxy-6-methyl-N-(3-(2,2,2-trifluoroethoxy)benzyl)nicotinamide], the results for the IC50 in assay [1] (setting [5]) and in assay [2] (setting [7]) were less than 20 nM and 20 to 200 nM, respectively.

For `COc1ncc(-c2ccn3nc(N)nc3c2)cc1C(=O)N1CCCC(Cc2ccc(C)cc2)C1` (centres unmarked) [Example 121, 7-(6-methoxy-5-{3-[(4-methylphenyl)methyl]piperidine-1-carbonyl}pyridin-3-yl)-[1,2,4]triazolo[1,5-a]pyridin-2-amine], the IC50 in assay [1] (setting [3]) and in assay [2] (setting [7]) was 20 to 200 nM in each case.

On to `Cc1ncc(-c2ccn3nc(N)nc3c2)cc1C(=O)NCc1cc(C(F)(F)F)ccc1F` [Example 226, 5-{2-amino-[1,2,4]triazolo[1,5-a]pyridin-7-yl}-N-{[2-fluoro-5-(trifluoromethyl)phenyl]methyl}-2-methylpyridine-3-carboxamide], for which the IC50 in assay [1] (setting [3]) and in assay [2] (setting [7]) was 20 to 200 nM throughout.

`Nc1nc2cc(-c3cncc(C(=O)NCc4ccccc4OCC4CC4)c3)ccn2n1` [Example 42, 5-{2-Amino-[1,2,4]triazolo[1,5-a]pyridin-7-yl}-N-{[2-(cyclopropylmethoxy)phenyl]methyl}pyridine-3-carboxamide]: the IC50 in assay [1] (setting [5]) and in assay [2] (setting [6]) was less than 20 nM each time.

Regarding `Cc1ncc(-c2ccn3nc(N)nc3c2)cc1C(=O)N1CCCC(C(O)c2ccc(F)cc2)C1` (centres unmarked) [Example 423, (5-(2-amino-[1,2,4]triazolo[1,5-a]pyridin-7-yl)-2-methylpyridin-3-yl)(3-((4-fluorophenyl)(hydroxy)methyl)piperidin-1-yl)methanone], the IC50 is more than 200 nM in assay [1] (x marks IC50 class >200 nM, read-out: RIPK1 HTRF binding >200 nM) and more than 200 nM in assay [2] (setting [4]).

For `COc1nc(C)c(-c2ccn3nc(N)nc3c2)cc1C(=O)NCc1cccc(OCC2CC2)c1` [Example 200, 5-{2-amino-[1,2,4]triazolo[1,5-a]pyridin-7-yl}-N-{[3-(cyclopropylmethoxy)phenyl]methyl}-2-methoxy-6-methylpyridine-3-carboxamide], the IC50 in assay [1] (setting [3]) and in assay [2] (setting [7]) was 20 to 200 nM throughout.

Turning to `COc1ncc(-c2ccn3nc(N)nc3c2)cc1C(=O)NCc1ncccc1OCC1CC1` [Example 132, 5-{2-amino-[1,2,4]triazolo[1,5-a]pyridin-7-yl}-N-{[3-(cyclopropylmethoxy)pyridin-2-yl]methyl}-2-methoxypyridine-3-carboxamide], the IC50 in assay [1] (setting [3]) and in assay [2] (setting [7]) was 20 to 200 nM each time.

Turning to `COc1nc(C)c(-c2ccn3nc(N)nc3c2)cc1C(=O)NCc1cccnc1OCC1CCCC1` [Example 8, 5-{2-Amino-[1,2,4]triazolo[1,5-a]pyridin-7-yl}-N-{[2-(cyclopentylmethoxy)pyridin-3-yl]methyl}-2-methoxy-6-methylpyridine-3-carboxamide], the IC50 was less than 20 nM in assay [1] (setting [5]) and 20 to 200 nM in assay [2] (setting [7]).

Take `COc1nc(C)c(-c2ccn3nc(N)nc3c2)cc1C(=O)NCc1c(F)cccc1OCC1CCC1` [Example 214, 5-{2-amino-[1,2,4]triazolo[1,5-a]pyridin-7-yl}-N-{[2-(cyclobutylmethoxy)-6-fluorophenyl]methyl}-2-methoxy-6-methylpyridine-3-carboxamide]: the IC50 in assay [1] (setting [5]) and in assay [2] (setting [6]) was less than 20 nM in each case.

Turning to `COc1ncc(-c2ccn3nc(N)nc3c2)cc1C(=O)NCc1ccccc1OCC(C)C` [Example 340, 5-(2-amino-[1,2,4]triazolo[1,5-a]pyridin-7-yl)-N-(2-isobutoxybenzyl)-2-methoxynicotinamide], the IC50 in assay [1] (setting [5]) is less than 20 nM; in assay [2] (setting [7]), 20 to 200 nM.

For `COc1ncc(-c2ccn3nc(N)nc3c2)cc1C(=O)NCc1ncccc1OCC1CCC1` [Example 37, 5-{2-Amino-[1,2,4]triazolo[1,5-a]pyridin-7-yl}-N-{[3-(cyclobutylmethoxy)pyridin-2-yl]methyl}-2-methoxypyridine-3-carboxamide], the IC50 was less than 20 nM in assay [1] (setting [5]) and 20 to 200 nM in assay [2] (setting [7]).

As for `COc1ncc(-c2ccn3nc(N)nc3c2)cc1C(=O)NCc1cccnc1OCC1CCCC1` [Example 127, 5-{2-amino-[1,2,4]triazolo[1,5-a]pyridin-7-yl}-N-{[2-(cyclopentylmethoxy)pyridin-3-yl]methyl}-2-methoxypyridine-3-carboxamide], the IC50 in assay [1] (setting [5]) was less than 20 nM; in assay [2] (setting [7]), 20 to 200 nM.

Take `COc1ncc(-c2ccn3nc(N)nc3c2)cc1C(=O)NCc1ccccc1OC1CCCCC1` [Example 44, 5-{2-Amino-[1,2,4]triazolo[1,5-a]pyridin-7-yl}-N-{[2-(cyclohexyloxy)phenyl]methyl}-2-methoxypyridine-3-carboxamide]: the IC50 in assay [1] (setting [5]) is less than 20 nM; in assay [2] (setting [7]), 20 to 200 nM.
